Results reported in ChEMBL document CHEMBL6127124, “Structure-Activity Relationships and Discovery of (S)-5-(tert-Butyl)-11-(difluoromethoxy)-9-methoxy-2-oxo-1,2,5,6-tetrahydropyrido[2',1':2,3]imidazo[4,5-h]quinoline-3-carboxylic Acid (AB-161), a Novel Orally Available and Liver-Centric HBV RNA Destabilizer” (J Med Chem, 2024).
One block for each compound: values may come before it.

Columns and labels:
[1] = Total Cmax in Beagle dog at 45 mg/kg, po qd measured after 91 days; assay type: ADME, organism-based, Canis lupus familiaris; settings: in vivo, time 91 day
[2] = Toxicity in Beagle dog assessed as uncoordinated movements at 15 mg/kg, po qd measured after 14 days; assay type: organism-based, Canis lupus familiaris; settings: in vivo, 336 h, time 14 day
[3] = Free Cmax in Beagle dog at 5 mg/kg, po qd measured after 91 days; assay type: ADME, organism-based, Canis lupus familiaris; settings: in vivo, 2184 h, time 91 day
[4] = Total Cmax in Beagle dog at 15 mg/kg, po qd measured after 91 days; assay type: ADME, organism-based, Canis lupus familiaris; settings: in vivo, time 91 day
Hepatitis B virus [5] = experiment: Antiviral activity against HBV genotype D in immuno-competent C57BL/6 mouse model of chronic HBV assessed as log10 reduction in HBsAg production at 10 mg/kg, po qd for 7 days measured 24 hrs post-last dose by EIA relative to control; assay type: functional; settings: time 8 day
CYP3A4 [6] = target: T1, CYP3A4 (Homo sapiens, UniProt P08684); experiment: Inhibition of CYP3A4 in human liver microsomes using midazolam as substrate preincubated for 30 min followed by NADPH addition measured after 12 mins by LC-MS/MS analysis; assay type: ADME, Microsome; settings: human, liver microsomes, probe midazolam
[7] = Selectivity ratio of drug concentration in liver in Sprague-Dawley rat at 10 mg/kg, po measured for 24 hrs to EC90 for antiviral activity against HBV infected in human HepG2.2.15 cells assessed as reduction in HBsAg level; assay type: ADME, organism-based; settings: in vivo
[8] = Drug concentration in Sprague-Dawley rat heart at 10 mg/kg, po measured for 24 hrs by LC-MS/MS analysis; assay type: ADME, organism-based; settings: read-out: Ct
CYP3A4 [9] = target: T1, CYP3A4; experiment: Inhibition of CYP3A4 in human liver microsomes using testosterone as substrate preincubated for 30 min followed by NADPH addition measured after 12 mins by LC-MS/MS analysis; assay type: ADME, Microsome; settings: human, liver microsomes, probe testosterone
[10] = Chemical stability of compound in PBS assessed as compound remaining measured after 6 days by HPLC UV analysis; assay type: physicochemical; settings: buffer, 144 h; time 6 day
[11] = Oral bioavailability in CD-1 mouse at 10 mg/kg measured for 24 hrs by LC-MS/MS analysis; assay type: ADME, organism-based; settings: in vivo
[12] = Oral bioavailability in Sprague-Dawley rat at 10 mg/kg measured for 24 hrs by LC-MS/MS analysis; assay type: ADME, organism-based; settings: in vivo
[13] = Ratio of drug concentration in liver to plasma of Sprague-Dawley rat at 10 mg/kg, po measured for 24 hrs by LC-MS/MS analysis; assay type: ADME, organism-based; settings: liver and plasma
[14] = Total AUC (0 to 24 hrs) in Beagle dog at 15 mg/kg, po qd measured after 91 days; assay type: ADME, organism-based, Canis lupus familiaris; settings: in vivo, time 91 day
Hepatitis B virus [15] = experiment: In vivo destabilization of HBV RNA in immuno-competent mouse model of chronic HBV assessed as log10 reduction in HBV DNA; assay type: functional
[16] = Total AUC (0 to 24 hrs) in Beagle dog at 45 mg/kg, po qd measured after 91 days; assay type: ADME, organism-based, Canis lupus familiaris; settings: in vivo, time 91 day
[17] = Free AUC (0 to 24 hrs) in Beagle dog at 15 mg/kg, po qd measured after 91 days; assay type: ADME, organism-based, Canis lupus familiaris; settings: in vivo, 2184 h, time 91 day
[18] = Free AUC (0 to 24 hrs) in Beagle dog at 45 mg/kg, po qd measured after 91 days; assay type: ADME, organism-based, Canis lupus familiaris; settings: in vivo, 2184 h, time 91 day
Hepatitis B virus [19] = experiment: Antiviral activity against HBV infected in immuno-competent mouse model assessed as log10 reduction serum HBsAg; assay type: functional
[20] = Toxicity in Beagle dog assessed as sporadic splayed limbs at 5 to 15 mg/kg, po qd measured after 38 days; assay type: organism-based, Canis lupus familiaris; settings: in vivo, 912 h, dose 5-15 mg/kg, time 38 day
[21] = Free AUC (0 to 24 hrs) in Beagle dog at 5 mg/kg, po qd measured after 91 days; assay type: ADME, organism-based, Canis lupus familiaris; settings: in vivo, 2184 h, time 91 day
[22] = Toxicity in Beagle dog assessed as uncoordinated movements at 15 to 45 mg/kg, po qd measured after 60 days; assay type: organism-based, Canis lupus familiaris; settings: in vivo, 1440 h, dose 15-45 mg/kg, time 60 day
[23] = Toxicity in female Beagle dog assessed as change in body weight at 15 to 45 mg/kg, po qd measured for 60 days; assay type: organism-based, Canis lupus familiaris; settings: in vivo, 1440 h, dose 15-45 mg/kg, time 60 day
[24] = Toxicity in Beagle dog assessed as splayed limbs at 15 to 45 mg/kg, po qd measured after 60 days; assay type: organism-based, Canis lupus familiaris; settings: in vivo, 1440 h, dose 15-45 mg/kg, time 60 day
[25] = Toxicity in male Beagle dog assessed as fold increase in alanine aminotransferase level at 45 mg/kg, po qd measured for 60 days; assay type: organism-based, Canis lupus familiaris; settings: in vivo, 1440 h, time 60 day
[26] = Free AUC (0 to 24 hrs) in Beagle dog at 15 mg/kg, po qd measured after 60 days; assay type: ADME, organism-based, Canis lupus familiaris; settings: in vivo, 1440 h, time 60 day
[27] = Total Cmax in Beagle dog at 45 mg/kg, po qd measured after 60 days; assay type: ADME, organism-based, Canis lupus familiaris; settings: in vivo, time 60 day
[28] = Toxicity in female Beagle dog assessed as fold decrease in calcium level at 15 to 45 mg/kg, po qd measured for 60 days; assay type: organism-based, Canis lupus familiaris; set-up: scale not given: the % may be the effect or the level left; settings: in vivo, 1440 h, dose 15-45 mg/kg, time 60 day
[29] = target: Voltage-gated inwardly rectifying potassium channel KCNH2 (Homo sapiens, UniProt Q12809); experiment: Inhibition of hERG; assay type: toxicity
Hepatitis B virus [30] = experiment: Antiviral activity against HBV infected in human primary hepatocytes assessed as reduction in HBeAg production pre-infected cells with virus followed by inoculum removal and subsequent addition of compounds with replenishment on days 4,7,9,11 and 14 post-infection measured after 16 days; assay type: functional, organism-based; settings: Hepatocyte, 384 h
[31] = Toxicity in male Beagle dog assessed as fold decrease in total protein level at 15 mg/kg, po qd measured for 60 days; assay type: organism-based, Canis lupus familiaris; set-up: scale not given: the % may be the effect or the level left; settings: in vivo, 1440 h, time 60 day
[32] = Free Cmax in Beagle dog at 15 mg/kg, po qd measured after 60 days; assay type: ADME, organism-based, Canis lupus familiaris; settings: in vivo, 1440 h, time 60 day
[33] = Total Cmax in Beagle dog at 15 mg/kg, po qd measured after 60 days; assay type: ADME, organism-based, Canis lupus familiaris; settings: in vivo, time 60 day

T1 sequence (P08684 whole entry): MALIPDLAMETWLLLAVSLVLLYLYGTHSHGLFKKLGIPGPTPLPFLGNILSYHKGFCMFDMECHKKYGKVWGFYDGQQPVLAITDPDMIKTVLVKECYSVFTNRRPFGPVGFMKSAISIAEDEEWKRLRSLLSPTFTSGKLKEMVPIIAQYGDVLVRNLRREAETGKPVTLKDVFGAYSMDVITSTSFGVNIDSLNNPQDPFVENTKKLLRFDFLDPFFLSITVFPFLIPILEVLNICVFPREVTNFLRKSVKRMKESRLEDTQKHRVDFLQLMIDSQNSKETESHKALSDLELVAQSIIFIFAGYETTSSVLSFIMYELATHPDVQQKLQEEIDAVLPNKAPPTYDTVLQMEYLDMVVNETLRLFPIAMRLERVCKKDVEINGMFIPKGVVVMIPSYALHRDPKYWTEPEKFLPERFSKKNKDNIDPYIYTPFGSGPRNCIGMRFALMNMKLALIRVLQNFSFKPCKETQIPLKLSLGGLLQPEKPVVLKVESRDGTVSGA
Voltage-gated inwardly rectifying potassium channel KCNH2, sequence (Q12809 whole entry): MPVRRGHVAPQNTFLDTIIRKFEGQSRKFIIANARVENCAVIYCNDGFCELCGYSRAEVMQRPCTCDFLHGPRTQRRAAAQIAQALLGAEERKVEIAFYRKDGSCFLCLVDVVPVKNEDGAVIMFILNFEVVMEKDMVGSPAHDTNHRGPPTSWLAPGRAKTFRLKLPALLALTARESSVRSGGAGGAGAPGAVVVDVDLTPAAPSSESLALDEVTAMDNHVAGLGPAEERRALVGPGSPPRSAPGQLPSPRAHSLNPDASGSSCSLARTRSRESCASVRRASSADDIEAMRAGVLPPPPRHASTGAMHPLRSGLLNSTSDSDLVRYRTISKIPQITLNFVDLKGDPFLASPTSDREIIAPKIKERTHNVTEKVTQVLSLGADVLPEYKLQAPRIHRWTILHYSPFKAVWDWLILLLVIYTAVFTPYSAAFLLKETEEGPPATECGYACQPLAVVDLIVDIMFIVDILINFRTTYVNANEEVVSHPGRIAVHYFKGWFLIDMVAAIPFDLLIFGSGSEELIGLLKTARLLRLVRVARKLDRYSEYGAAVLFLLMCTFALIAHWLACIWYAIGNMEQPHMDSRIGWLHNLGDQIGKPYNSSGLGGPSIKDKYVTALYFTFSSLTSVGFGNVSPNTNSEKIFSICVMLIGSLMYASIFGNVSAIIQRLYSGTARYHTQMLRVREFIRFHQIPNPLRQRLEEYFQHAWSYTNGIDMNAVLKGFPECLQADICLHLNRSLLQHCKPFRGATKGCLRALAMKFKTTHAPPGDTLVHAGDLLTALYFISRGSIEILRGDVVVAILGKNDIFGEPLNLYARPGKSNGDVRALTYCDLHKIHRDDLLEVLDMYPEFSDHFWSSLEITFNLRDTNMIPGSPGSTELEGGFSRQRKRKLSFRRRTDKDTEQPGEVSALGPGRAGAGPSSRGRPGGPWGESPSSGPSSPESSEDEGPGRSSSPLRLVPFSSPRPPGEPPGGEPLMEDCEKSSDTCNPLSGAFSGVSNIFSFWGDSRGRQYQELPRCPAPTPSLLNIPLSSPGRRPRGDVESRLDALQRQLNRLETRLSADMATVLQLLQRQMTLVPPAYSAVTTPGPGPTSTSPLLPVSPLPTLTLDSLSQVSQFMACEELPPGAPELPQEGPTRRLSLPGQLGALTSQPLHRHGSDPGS

Compound: COCCCOc1cc2c(nc1OC)-c1cc(=O)c(C(=O)O)cn1[C@H](C(C)C)C2
Cmax [1]: 27800 ng/mL
Activity [2]: Toxic
fCmax [3]: 1740 ng/mL
Cmax [4]: 11500 ng/mL
log(activity) (Hepatitis B virus [5]): 0.98
IC50 at 12 min (CYP3A4 [6]): > 25 µM
Ratio [7]: 5
concentration at 24 h [8]: 53 ng/g
IC50 at 12 min (CYP3A4 [9]): > 25 µM
Stability [10]: Stable
bioavailability [11]: 112%
bioavailability [12]: 80%
Kp at 24 h [13]: 3.3
AUC at 2184 h [14]: 30600 ng·h/mL
log(activity) (Hepatitis B virus [15]): <=0.94
AUC at 2184 h [16]: 95200 ng·h/mL
fAUC [17]: 11400 ng·h/mL
fAUC [18]: 35300 ng·h/mL
log(activity) (Hepatitis B virus [19]): <=0.94
Activity [20]: Toxic
fAUC [21]: 3900 ng·h/mL

fAUC [26]: 1830 ng·h/mL
Cmax [27]: 17800 ng/mL
fCmax [32]: 653 ng/mL
Cmax [33]: 13900 ng/mL
Compound: COc1cc(OC(F)F)c2nc3c(n2c1)C[C@@H](C(C)(C)C)c1cc(C(=O)O)c(=O)[nH]c1-3
Activity [22]: Non-Toxic
Activity [23]: Non-Toxic
Activity [24]: Non-Toxic
fold change (FC) [25]: < 2
Activity [28]: < 10%
IC50 [29]: > 30 µM
EC50 (Hepatitis B virus [30]): 0.0085 µM
Activity [31]: < 20%
